# Columns and labels:
# [1] = tested on: pancreatic beta cell function; test: Beta cell function evaluation after pancreatic damage; type: in vivo, rat; settings: at 2 weeks after pancreatic damage
# Description: (§1) Male Sprague-Dawley rats (S.D. 180 g) were used in the experiments described below. The animals lived in individual metabolism cages with free access to food and water, while food and body weight were monitored daily. Peripheral blood samples (approximately 10 μl) were obtained from the tail vein of the animals. The blood glucose levels were measured by using Accu-Check Blood Glucose Meter (Roche Diagnosetics Corporation, IN). Beta cell function was evaluated once every two days over a 2-week period by an individual unaware of the treatment group. Animals were evaluated separately for blood glucose level, food intake and body weight. The endpoint check was pancreatic insulin content and pancreatic beta cell number.
# rat = settings: injection of TRH into the rat brain; cited from earlier work
# Sprague-Dawley rats = test: Blood glucose level in rats given compound alone (no STZ); type: in vivo, rat; settings: Table 1, rats, TRH alone (no STZ)
# Description: as §1
# (§2) The figures shown in the tables are blood glucose levels (mg/dL; i.e., milligrams of glucose per deciliter of blood).
# [2] = tested on: STZ-induced hyperglycemic rats; test: Serum insulin assay after TRH treatment of STZ rats; type: in vivo, rat; settings: following TRH vs. control and STZ groups
# Description: (§3) Partial pancreatic tissue was extracted with 1 N glacial acetic acid for insulin assay by ELISA. Four animals were used in each group. Each pancreas was placed in head (central) to tail (peripheral) orientation and immediately snap frozen and kept at −80° C. This orientation of the tissue provided an opportunity for sectioning of equal surface areas when cutting the frozen tissue. In this manner, the pancreas sections included every portion of the pancreas in parallel, while avoiding variations caused by sectioning from different areas. The HE histological staining was performed on serial sections (5 um thick) and islets were counted in 10 slides for each sample and standardized by dividing the total area (islets/cm^2).
# (§4) A group of animals were given a single dose i.p. of 20 μg/kg BW or 5-40 μg BW of TRH or TRH analogs on the seventh day or on the third day after STZ administration, which allowed for examination of the TRH/TRH analog treatment and the degree of pancreatic damage in the diabetic animal. Again, food intake, body weight and blood glucose levels of each of the animals were monitored. When hyperglycemia was determined to be reversed by TRH/TRH analog, the animal was sacrificed. Blood samples were collected for insulin assay and the pancreas and muscles were collected for further pathological and physiological tests.
# [3] = tested on: STZ-induced hyperglycemic rats; test: Effect on STZ-induced hyperglycemia in rats (blood glucose level); type: in vivo, rat; settings: for blood glucose level: Table 1, rats, STZ + compound i.p.
# Description: as §1
# Streptozotocin (STZ) was used to chemically induce damage in pancreatic function in order to create a hyperglycemic state in the animals. Eight-week old male Sprague-Dawley rats (200.00 g±10 g) were injected with STZ by intraperitoneal (i.p.) (65 mg/kg body weight (BW)) to create hyperglycemic animals (24 to 48 hours). Blood glucose levels were monitored daily. Onset of hyperglycemia occurred usually about 24 to 48 hours after STZ administration.
# as §4, with “A group of animals were given a single dose i.p. of 20 μg/kg BW or 5-40 μg BW of TRH or TRH analogs on” left out
# as §2
# [4] = in vivo; cited from earlier work
# pancreatic islets = test: Pancreatic islet count (HE histological staining); type: in vivo, rat; settings: by activation of the TRH receptor
# Description: as §3
smiles,measurement,setting,value
"NC(=O)[C@@H]1CCCN1C(=O)[C@H](Cc1cnc[nH]1)NC(=O)[C@@H]1CCC(=O)N1 [TRH, L-pyroglutamyl-L-histidyl-L-prolineamide, reference compound]",pancreatic endocrine outcome,[1],improved
same,blood glucose levels,rat,reduce blood glucose levels
same,blood glucose level,Sprague-Dawley rats; Day 1,101.5 mg/dL
same,blood glucose level,Sprague-Dawley rats; Day 2,125 mg/dL
same,blood glucose level,Sprague-Dawley rats; Day 4,125 mg/dL
same,blood glucose level,Sprague-Dawley rats; Day 9,96 mg/dL
same,blood glucose level,Sprague-Dawley rats; Day 15,82.5 mg/dL
same,blood glucose level,Sprague-Dawley rats; Day 22,89 mg/dL
same,blood glucose level,Sprague-Dawley rats; Day 29,74.5 mg/dL
same,blood glucose level,Sprague-Dawley rats; Day 39,80 mg/dL
same,blood glucose level,Sprague-Dawley rats; Day 43,90.5 mg/dL
same,blood glucose level,Sprague-Dawley rats; Day 50,93 mg/dL
same,blood glucose level,Sprague-Dawley rats; Day 53,78 mg/dL
same,blood glucose level,Sprague-Dawley rats; Day 56,75 mg/dL
same,blood glucose level,Sprague-Dawley rats; Day 60,67 mg/dL
same,blood glucose level,Sprague-Dawley rats; Day 64,85 mg/dL
same,levels of insulin in the serum,[2],increased
same,hyperglycemia,"[3]; TRH administration on day 3 following STZ injection, after 6 days",reversed the hyperglycemia
same,blood glucose level,[3]; Day 1,107.8 mg/dL
same,blood glucose level,[3]; Day 2,321.4 mg/dL
same,blood glucose level,[3]; Day 4,448.8 mg/dL
same,blood glucose level,[3]; Day 9,191.2 mg/dL
same,blood glucose level,[3]; Day 15,182.6 mg/dL
same,blood glucose level,[3]; Day 22,380.2 mg/dL
same,blood glucose level,[3]; Day 29,337 mg/dL
same,blood glucose level,[3]; Day 39,283.4 mg/dL
same,blood glucose level,[3]; Day 43,220.4 mg/dL
same,blood glucose level,[3]; Day 50,182 mg/dL
same,blood glucose level,[3]; Day 53,151 mg/dL
same,blood glucose level,[3]; Day 56,139 mg/dL
same,blood glucose level,[3]; Day 60,180 mg/dL
same,blood glucose level,[3]; Day 64,156 mg/dL
same,glucose levels over time,"[3]; rat treated with TRH after STZ-induced hyperglycemia, over a two month time period",continually decreased
same,STZ induced hyperglycemia,"[3]; rats, after seven days of TRH and STZ treatment",normalized
same,plasma half-life,[4],4 to 5 min
same,number of pancreatic islets,pancreatic islets,increases
